In US6677466B1, “Method for stabilizing hydrogen peroxide” (DSM Fine Chemicals Austria NFG GmbH & Co KG, priority 1999, dated 2004):

Test: O2 evolution from [Mn2O3{Me3tacn}2](PF6)2-catalysed decomposition of H2O2 with stabilizer
Format: physicochemical
Protocol: A 50% strength aqueous solution of H2O2 (304 mg; 4.46 mmol) was added to 454 mg (4.46 mmol) of methyl pyruvate and to 535 mg (4.46 mmol) of glyoxylic methyl ester methyl hemiacetal, respectively. In the case of methyl pyruvate, a marked evolution of heat was discovered during the addition. After one hour, the H2O2/α-keto ester mixture was mixed with 1 ml of solvent and added to a suspension of 1.0 mg of [Mn2O3{Me3tacn}2](PF6)2 catalyst in 4 ml of solvent. The suspension was introduced into a 50 ml flask which was maintained at room temperature in a water bath. As a result of this addition, in cases where undissolved catalyst was still present, the catalyst dissolved completely.
As a comparison, a suspension of 1.0 mg of [Mn2O3{Me3tacn}2](PF6)2 catalyst in 4 ml of solvent was combined with a 50% strength aqueous solution of H2O2 (304 mg; 4.46 mmol) and 1 ml of solvent without stabilizer.
The amount of oxygen which was evolved from the decomposition of the hydrogen peroxide was determined as a function of time using a Brooks meter, which permitted measurement of the gas flow and the total amount of evolved gas.

**Q.** What does the source list for `COC(=O)C(O)OC` (stereo not drawn) [GMHA, glyoxylic methyl ester methyl hemiacetal]?
**A.** O2 evolution V(O2) (Vmax(O2)*100%) (solv. acetic acid, t 5 min): 0%; O2 evolution V(O2) (Vmax(O2)*100%) (solv. acetic acid, t 10 min): 2%; O2 evolution V(O2) (Vmax(O2)*100%) (solv. acetic acid, t 15 min): 3%; O2 evolution V(O2) (Vmax(O2)*100%) (solv. acetic acid, t 20 min): 3%; O2 evolution V(O2) (Vmax(O2)*100%) (solv. acetic acid, t 25 min): 3%; O2 evolution V(O2) (Vmax(O2)*100%) (solv. acetic acid, t 30 min): 3%; O2 evolution V(O2) (Vmax(O2)*100%) (solv. acetic acid, t 35 min): 3%; O2 evolution V(O2) (Vmax(O2)*100%) (solv. acetic acid, t 40 min): 3%; O2 evolution V(O2) (Vmax(O2)*100%) (solv. acetic acid, t 50 min): 3%; O2 evolution V(O2) (Vmax(O2)*100%) (solv. acetic acid, t 60 min): 3%; O2 evolution V(O2) (Vmax(O2)*100%) (solv. acetic acid, t 70 min): 3%; O2 evolution V(O2) (Vmax(O2)*100%) (solv. acetic acid, t 80 min): 3%; O2 evolution V(O2) (Vmax(O2)*100%) (solv. acetone, t 5 min): 0%; O2 evolution V(O2) (Vmax(O2)*100%) (solv. acetone, t 10 min): 0%; O2 evolution V(O2) (Vmax(O2)*100%) (solv. acetone, t 15 min): 0%; O2 evolution V(O2) (Vmax(O2)*100%) (solv. acetone, t 20 min): 0%; O2 evolution V(O2) (Vmax(O2)*100%) (solv. acetone, t 25 min): 0%; O2 evolution V(O2) (Vmax(O2)*100%) (solv. acetone, t 30 min): 0%; O2 evolution V(O2) (Vmax(O2)*100%) (solv. acetone, t 35 min): 0%; O2 evolution V(O2) (Vmax(O2)*100%) (solv. acetone, t 40 min): 0%; O2 evolution V(O2) (Vmax(O2)*100%) (solv. acetone, t 50 min): 0%; O2 evolution V(O2) (Vmax(O2)*100%) (solv. acetone, t 60 min): 9%; O2 evolution V(O2) (Vmax(O2)*100%) (solv. acetone, t 70 min): 12%; O2 evolution V(O2) (Vmax(O2)*100%) (solv. acetone, t 80 min): 12%; O2 evolution V(O2) (Vmax(O2)*100%) (solv. acetonitrile, t 5 min): 0%; O2 evolution V(O2) (Vmax(O2)*100%) (solv. acetonitrile, t 10 min): 0%; O2 evolution V(O2) (Vmax(O2)*100%) (solv. acetonitrile, t 15 min): 0%; O2 evolution V(O2) (Vmax(O2)*100%) (solv. acetonitrile, t 20 min): 0%; O2 evolution V(O2) (Vmax(O2)*100%) (solv. acetonitrile, t 25 min): 0%; O2 evolution V(O2) (Vmax(O2)*100%) (solv. acetonitrile, t 30 min): 0%; O2 evolution V(O2) (Vmax(O2)*100%) (solv. acetonitrile, t 35 min): 0%; O2 evolution V(O2) (Vmax(O2)*100%) (solv. acetonitrile, t 40 min): 0%; O2 evolution V(O2) (Vmax(O2)*100%) (solv. acetonitrile, t 50 min): 0%; O2 evolution V(O2) (Vmax(O2)*100%) (solv. acetonitrile, t 60 min): 0%; O2 evolution V(O2) (Vmax(O2)*100%) (solv. acetonitrile, t 70 min): 0%; O2 evolution V(O2) (Vmax(O2)*100%) (solv. acetonitrile, t 80 min): 0%; O2 evolution V(O2) (Vmax(O2)*100%) (solv. ethyl acetate, t 5 min): 0%; O2 evolution V(O2) (Vmax(O2)*100%) (solv. ethyl acetate, t 10 min): 4%; O2 evolution V(O2) (Vmax(O2)*100%) (solv. ethyl acetate, t 15 min): 8%; O2 evolution V(O2) (Vmax(O2)*100%) (solv. ethyl acetate, t 20 min): 9%; O2 evolution V(O2) (Vmax(O2)*100%) (solv. ethyl acetate, t 25 min): 9%; O2 evolution V(O2) (Vmax(O2)*100%) (solv. ethyl acetate, t 30 min): 9%; O2 evolution V(O2) (Vmax(O2)*100%) (solv. ethyl acetate, t 35 min): 9%; O2 evolution V(O2) (Vmax(O2)*100%) (solv. ethyl acetate, t 40 min): 9%; O2 evolution V(O2) (Vmax(O2)*100%) (solv. ethyl acetate, t 50 min): 9%; O2 evolution V(O2) (Vmax(O2)*100%) (solv. ethyl acetate, t 60 min): 9%; O2 evolution V(O2) (Vmax(O2)*100%) (solv. ethyl acetate, t 70 min): 9%; O2 evolution V(O2) (Vmax(O2)*100%) (solv. ethyl acetate, t 80 min): 9%; O2 evolution V(O2) (Vmax(O2)*100%) (solv. methanol, t 5 min): 1%; O2 evolution V(O2) (Vmax(O2)*100%) (solv. methanol, t 10 min): 1%; O2 evolution V(O2) (Vmax(O2)*100%) (solv. methanol, t 15 min): 1%; O2 evolution V(O2) (Vmax(O2)*100%) (solv. methanol, t 20 min): 1%; O2 evolution V(O2) (Vmax(O2)*100%) (solv. methanol, t 25 min): 1%; O2 evolution V(O2) (Vmax(O2)*100%) (solv. methanol, t 30 min): 1%; O2 evolution V(O2) (Vmax(O2)*100%) (solv. methanol, t 35 min): 1%; O2 evolution V(O2) (Vmax(O2)*100%) (solv. methanol, t 40 min): 1%; O2 evolution V(O2) (Vmax(O2)*100%) (solv. methanol, t 50 min): 1%; O2 evolution V(O2) (Vmax(O2)*100%) (solv. methanol, t 60 min): 1%; O2 evolution V(O2) (Vmax(O2)*100%) (solv. methanol, t 70 min): 1%; O2 evolution V(O2) (Vmax(O2)*100%) (solv. methanol, t 80 min): 1%; O2 evolution V(O2) (Vmax(O2)*100%) (solv. t-butanol, t 5 min): 0%; O2 evolution V(O2) (Vmax(O2)*100%) (solv. t-butanol, t 10 min): 0%; O2 evolution V(O2) (Vmax(O2)*100%) (solv. t-butanol, t 15 min): 0%; O2 evolution V(O2) (Vmax(O2)*100%) (solv. t-butanol, t 20 min): 0%; O2 evolution V(O2) (Vmax(O2)*100%) (solv. t-butanol, t 25 min): 0%; O2 evolution V(O2) (Vmax(O2)*100%) (solv. t-butanol, t 30 min): 0%; O2 evolution V(O2) (Vmax(O2)*100%) (solv. t-butanol, t 35 min): 0%; O2 evolution V(O2) (Vmax(O2)*100%) (solv. t-butanol, t 40 min): 0%; O2 evolution V(O2) (Vmax(O2)*100%) (solv. t-butanol, t 50 min): 0%; O2 evolution V(O2) (Vmax(O2)*100%) (solv. t-butanol, t 60 min): 0%; O2 evolution V(O2) (Vmax(O2)*100%) (solv. t-butanol, t 70 min): 0%; O2 evolution V(O2) (Vmax(O2)*100%) (solv. t-butanol, t 80 min): 0%
